Test results reported in PMC4446607, “Tilapia Piscidin 4 (TP4) Stimulates Cell Proliferation and Wound Closure in MRSA-Infected Wounds in Mice” (Marine Drugs, 2015).

Columns and labels:
[1] = test system: EGF, TGF-β and VEGF gene expression in wound tissue; assay: Real-time RT-PCR of EGF, TGF-β and VEGF gene expression in wound tissue of MRSA-infected mice; format: in vivo
Description: (§1) Total RNA was isolated from HaCaT and Hs-68 cells, and purified using a Qiagen RNeasy kit. Reverse transcription into cDNA was performed with an iScript cDNA Synthesis Kit (Cat. No. 1708991; BIO-RAD, Hercules, CA, USA) according to the manufacturer’s recommendations. Real-time polymerase chain reaction (PCR) was performed to analyze gene expression, using […] of cDNA, 2× iQSYBR® Green Supermix (Cat. No. 1708882; BIO-RAD, Hercules, CA, USA), and 500 nM of forward and reverse primers against selected genes or GAPDH (reference gene), according to the instructions of the manufacturer. Quantitative PCR was performed under the following conditions: 40 cycles of 1 min at 95 °C, 30 s at 55 °C, and 1 min at 72 °C. The threshold cycle number (Ct) was calculated with BIO-RAD software. Relative transcript quantities were calculated using the ΔCt method with GAPDH as the internal reference gene. ΔCt is the difference in the threshold cycles of messenger (m) RNA for selected genes relative to those of GAPDH mRNA. Real-time PCR was performed in triplicate for each experimental group.
Tracings were taken immediately after injury. For uncontaminated wounds, wound size was determined every second day. […] Wound areas were determined using the Macintosh Adobe Photoshop program, Histogram Analysis. The percentage of wound contraction was calculated as follows: % Wound contraction = (A0 − At)/A0× 100, where A0 is the original wound area, and At is the area of wound at the time of biopsy, accordingly. Cell proliferation gene expression was performed by real-time PCR, using the methods described in Section 4.4 above.

[2] = test system: Hs-68 human foreskin fibroblast cell line; format: cell-based
Description: (§2) An MRSA strain commonly associated with human wound infections was selected to generate a polymicrobial solution [32]. The MRSA strain is a clinical isolate from stool obtained from Taipei City Hospital (Heping Fuyou branch). The strain was identified by routine laboratory methods and stored in 20% (vol/vol) glycerol at −80 °C. Tryptic Soy Broth (TSB) was used as the culture medium. HaCaT human keratinocyte cell line and Hs-68 human foreskin fibroblast cell line were grown in DMEM containing 10% (v/v) FBS, 0.37% (w/v) NaHCO3, penicillin (100 unit/mL), streptomycin (100 μg/mL), 0.1 mM NEAA, and 1 mM sodium pyruvate at 37 °C in a humidified incubator under 5% CO2 and 95% air. The cells were harvested at ca. 90% confluence (ca. 10^6 cells/10-cm dish). Balb/c female mice were used for the experiments. All mice were housed in cages under specific pathogen-free conditions, and given water and standard laboratory chow ad libitum during the experiments. All animal handing procedures were in accordance with National Taiwan Ocean University (NTOU) guidelines. All procedures were approved by the Animal Care and Use Committee of NTOU.
(§3) Cells were cultured at a density of 5 × 10^4 cells per well in flat-bottomed 96-well plates, and supplemented with various combinations of TP4. After 24 h, cell viability were measured with neutral red (Cat. No. N4638; Sigma, St. Louis, MO, USA) uptake assay, Cytotoxicity Detection Kit (LDH) (Cat. No. 11644793001; Roche Applied Science, Indianapolis, IN, USA), and CellTiter 96 Aqueous One Solution (Cat. No. G1111; Promega, Madison, WI, USA), following the vendors’ instructions.

[3] = test system: HaCaT human keratinocyte cell line; format: cell-based; conditions: HaCaT cells
Description: as §2, §3

[4] = test system: keratin 10 and keratin 17 gene expression in HaCaT cells; assay: Real-time qPCR of keratin 10 and keratin 17 gene expression in HaCaT cells; format: cell-based, human; conditions: TP4 6.25 µg/mL, 48 h, GAPDH reference
Description: as §1

[5] = test system: TNF, IL-6 and IL-1 in serum; assay: Serum cytokines (TNF, IL-6, IL-1) by ELISA in mice with MRSA-infected wounds; format: in vivo; conditions: MRSA-infected wound
Description: (§4) Female Balb/c mice (6–8 weeks old) were used for wound healing experiments. All mice were housed individually to prevent fighting and further damage to the wounds, and they were provided with food and water ad libitum. Mice were maintained on a 12 h light: dark cycle at room temperature, and acclimatized to the environment for at least a week before use in experiments. All researchers wore caps, sterile gloves, gowns, and shoe covers when handling mice. Hair was removed from the back of the mice by shaving, and a full thickness wound (1 cm in diameter) was then created in the exposed region. Each wound was inoculated with 50 µL of broth mix containing 10^6 CFU (colony forming units) of MRSA. At 5 min after inoculation, 50 µL TP4 (2 mg/mL) in a total volume of 0.1 mL were applied to the wound. Thirty minutes after treatment, wounds were covered with Tegaderm (3 M, St. Paul, MN, USA) to maintain uniformity, and to prevent the mice from removing the treatments. Based on initial experiments, we examined the wounds at 3, 7, 14, and 21 days post-injury, so as not to disturb the infection. Such examinations captured the transitions from inflammatory to regenerative, and regenerative to resolving phases of wound healing. Animals were subsequently euthanized by CO2 inhalation and the wounds assessed. Four individuals in each group were examined at each time point for each experiment. Each wound was measured and then removed from the animal, with unwounded skin taken from the contralateral dorsum as a control. Each biopsy was divided into six sections, with three sections being used for tensiometry and histology, and three sections for quantitative determination of microbial load. Wound healing studies were repeated in triplicate.
Skin tissues were removed and fixed as previously described. In brief, the cryosections were fixed with 4% formaldehyde, and the tissue samples were stained with VEGF. IHC was analyzed by three independent investigators. Images were taken using a BX-51 microscope (Olympus, Japan). ELISA was performed as previously described.

[6] = test system: collagen I, collagen III and KGF gene expression in Hs-68 cells; assay: Real-time qPCR of collagen I, collagen III and KGF gene expression in Hs-68 cells; format: cell-based, human; conditions: TP4 6.25 μg/mL, 48 h, GAPDH reference
Description: as §1

MRSA = assay: Mouse model of MRSA sepsis (survival, lethality, bacterial counts in organs); format: in vivo, Staphylococcus aureus; conditions: for Survival rate at eight days after MRSA infection: i.p. treatment 10 min later: TP4 0.005 mg/g, vancomycin 0.01 mg/g, methicillin 0.01 mg/g; for Survival rate at eight days after MRSA infection / % lethality: n = 10; for Mean ± SD Count (CFU/mL) Blood / Mean ± SD Count (CFU/mL) Liver / Mean ± SD Count (CFU/mL) Mesenteric Lymph Nodes / Mean ± SD Count (CFU/mL) Peritoneum / Mean ± SD Count (CFU/mL) Spleen / % lethality: MRSA-infected mice, TP4 0.005 mg/g, methicillin or vancomycin 0.01 mg/g; for Mean ± SD Count (CFU/mL) Blood / Mean ± SD Count (CFU/mL) Liver / Mean ± SD Count (CFU/mL) Mesenteric Lymph Nodes / Mean ± SD Count (CFU/mL) Peritoneum / Mean ± SD Count (CFU/mL) Spleen: 48 h after i.p. treatment; for % lethality: monitored for 2 day following i.p. injection
Description: as §2
Female Balb/c mice (6–8 weeks old) were injected intraperitoneally with 10^6 CFU MRSA per mouse. Ten minutes after MRSA injection, mice were injected intraperitoneally with vancomycin (0.01 mg/g mouse body weight), methicillin (0.01 mg/g mouse body weight), or TP4 (0.005 mg/g mouse body weight). In a second set of experiments, mice were given intraperitoneal injections of TP4 (0.005 mg/g mouse body weight) at 10, 60, 120, or 180 min after MRSA injection. Survival rate and status were recorded every 24 h for up to 192 h. To examine bacterial dissemination, mice were sacrificed at 48 h after injection with antibiotics or TP4, and the bacterial numbers in blood, peritoneum, spleen, liver, and mesenteric lymph nodes were recorded. Colony counts from the diluted bacterial solutions were expressed relative to those at the start of treatment. These experiments consisted of four groups, and each group contained 10 mice.

MRSA-infected wounds = assay: Mouse model of wound healing, full-thickness wounds contaminated with MRSA (wound closure); format: in vivo, Balb/c mice
Description: as §4, with “Thirty minutes after treatment, wounds were covered with Tegaderm (3 M, St. Paul, MN, USA) to maintain uniformity, and to prevent the mice from removing the treatments. Based on initial experiments, we examined the wounds at 3, 7, 14, and 21 days post-injury, so as not to disturb the infection. Such examinations captured the transitions from inflammatory to regenerative, and regenerative to resolving phases of wound healing.” left out, “Four individuals in each group were examined at each time point for each experiment.” left out, “Wound healing studies were repeated in triplicate.” left out
Tracings were taken immediately after injury. For uncontaminated wounds, wound size was determined every second day. […] Wound areas were determined using the Macintosh Adobe Photoshop program, Histogram Analysis. […]

[7] = Balb/c mice, MRSA 1 × 10^6 CFU/mouse i.p., TP4 0.005 mg/g i.p.
[8] = Balb/c mice, MRSA 1 × 10^6 CFU/mouse i.p.

Molecule	Survival rate at eight days after MRSA infection (MRSA; [8]) [%]	Mean ± SD Count (CFU/mL) Blood (MRSA)	Mean ± SD Count (CFU/mL) Liver (MRSA)	Mean ± SD Count (CFU/mL) Mesenteric Lymph Nodes (MRSA)	Mean ± SD Count (CFU/mL) Peritoneum (MRSA)	Mean ± SD Count (CFU/mL) Spleen (MRSA)	% lethality (MRSA)	other results
H-FIHHIIGGLFSAGKAIHRLIRRRRR-OH [TP4, Tilapia piscidin 4]	100	0 ^A CFU/mL	2.4 × 10^6 ± 1 × 10^6 A CFU/mL	6 × 10^5 ± 1 × 10^5 A CFU/mL	1 × 10^6 ± 1 × 10^6 A CFU/mL	3 × 10^6 ± 1.2 × 10^6 A CFU/mL	0 ^A %	EGF gene expression compared to control and vancomycin-treated mice ([1]; 3 days post-infection): enhanced gene expression; VEGF gene expression compared to control and vancomycin-treated mice ([1]; 14 days post-infection): enhanced gene expression; TGF gene expression compared to control and vancomycin-treated mice ([1]; seven days post-infection): enhanced gene expression; TP4 concentration at which stimulation of proliferation / gene expression was detectable ([2]; Hs-68 cells): 6.25 µg/mL; Doses at which Hs-68 cell proliferation was significantly increased ([2]; change in cell viability compared to the untreated group, neutral red, LDH, MTT): 2.5~10 μg/mL; TP4 concentration at which stimulation of proliferation / gene expression was detectable [3]: 6.25 µg/mL; Keratin 10 gene expression versus untreated controls [4]: significantly increased; Keratin 17 gene expression versus untreated controls [4]: did not affect; IL-1 compared with control wounds [5]: statistically significant enhancement; Induction of IL-6 compared to MRSA-infected positive controls ([5]; three days after treatment): decreased induction; Induction of TNF compared to MRSA-infected positive controls ([5]; three days after treatment): decreased induction; Collagen I gene expression versus untreated controls [6]: enhanced; Collagen III gene expression versus untreated controls [6]: enhanced; KGF gene expression versus untreated controls [6]: enhanced; Survival rate, TP4 injected 10 min after MRSA (MRSA; [7]): 100%; Survival rate, TP4 injected 60 min after MRSA (MRSA; [7]): 80%; Survival rate, TP4 injected 120 min after MRSA (MRSA; [7]): 60%; Survival rate, TP4 injected 180 min after MRSA (MRSA; [7]): 50%; Wound size by 14 days (MRSA-infected wounds; MRSA-contaminated wounds, P < 0.05): smaller than that of the vancomycin-treated group; Wound closure compared with the control (MRSA-infected wounds; contaminated wounds (increase not observed in uncontaminated wounds)): accelerated
CN[C@H](CC(C)C)C(=O)N[C@H]1C(=O)N[C@@H](CC(N)=O)C(=O)N[C@H]2C(=O)N[C@H]3C(=O)N[C@H](C(=O)N[C@H](C(=O)O)c4cc(O)cc(O)c4-c4cc3ccc4O)[C@H](O)c3ccc(c(Cl)c3)Oc3cc2cc(c3O[C@@H]2O[C@H](CO)[C@@H](O)[C@H](O)[C@H]2O[C@H]2C[C@](C)(N)[C@H](O)[C@H](C)O2)Oc2ccc(cc2Cl)[C@H]1O [vancomycin]	80	8 × 10^4 ± 1.1 × 10^4 B CFU/mL	1.3 × 10^7 ± 1.8 × 10^5 B CFU/mL	1 × 10^7 ± 4 × 10^6 B CFU/mL	1.5 × 10^6 ± 1 × 10^5 A CFU/mL	1.4 × 10^7 ± 1.1 × 10^6 B CFU/mL	10%	–
COc1cccc(OC)c1C(=O)N[C@@H]1C(=O)N2[C@@H]1SC(C)(C)[C@@H]2C(=O)O [methicillin]	0	4.1 × 10^7 ± 1.3 × 10^7 B CFU/mL	2.7 × 10^8 ± 3.3 × 10^6 B CFU/mL	4.1 × 10^7 ± 3 × 10^7 C CFU/mL	2.3 × 10^9 ± 2 × 10^8 B CFU/mL	1.5 × 10^8 ± 2.1 × 10^7 B CFU/mL	20 ^B %	–
